# US20240408119A1, “DELIVERY OF THERAPEUTIC ALKALOID COMPOUNDS” (priority 2022, published 2024)
# Like-named read-outs stand apart in the source and are kept apart here.
# Legend:
# [1] = Metabolic Stability in Human Hepatocytes; type: in vitro ADME; conditions: cryopreserved human hepatocytes, 37° C.
# Method in brief: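 Cryopreserved human hepatocytes at 5×10^5 viable cells/mL in serum-free medium, 100 μM compound stock added 1:100, 37° C. with shaking, sampled 0.5–120 min. Acetonitrile quench, LC-MS/MS; t1/2 = 0.693/k from regression slope, CLint = kV/N in μL/min/10^6 cells.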
# [2] = biological target: SERT (Homo sapiens (Human), UniProt P31645); assay: SERT Inhibition Assay (Neurotransmitter Transporter Fluorescence assay, stable 5HTT cells); type: cell-based
# Method: SERT inhibition was measured using a Neruotransmitter Transportation Fluorescence assay. Briefly, stable 5HTT cells were prepared in a 384 microwell plate. Compounds were prepared by in assay buffer (20 mM HEPES, 0.1% BSA). The compounds were added to the plated cells and incubated for 30 minutes at 37° C. 25 μL of dye solution (Molecular Devices Neurotransmitter Transporter Uptake Assay Kit) was added per well and incubated for 30 minutes at 37° C. The plates were then read on a plate reader.
# [3] = type: in vitro ADME, mouse; conditions: prodrug remaining, 5 μM, 37° C.
# Method: (§1) Each test was carried out in duplicate for each time point; 0 min, 15 min, 30 min, 60 min, 120, 240 min. […]
# [4] = Hydrolysis Assay - Condition 1 (SGF); type: physicochemical; conditions: SGF with pepsin pH 1.5, 37° C., 0.5 mM
# [5] = Plasma Stability Assay (Example A3), rat plasma; type: in vitro ADME; conditions: prodrug remaining, 10 μM, 37° C.
# Excerpt: The data is represented in the table below.
# [6] = in vivo; type: in vivo, mouse; conditions: for half-life / C0 / clearance / Vd: iv, 2 mg/kg; for C0: back extrapolated; for clearance: flagged NR (not reportable, very high vs liver blood flow); for Vd: read-out: Vss
# Method: Total fifteen male mice were used in this study with n=3 mice/time point with sparse sampling study design. Animals were administered through intravenous route with solution formulation of 323 at 2 mg/kg dose.
# The extraction procedure for plasma/brain samples and the spiked plasma/brain calibration standards were identical (PMSF Stabilized Plasma and Brain used for Preparation of calibration standards): A 20 μL of study sample plasma/brain or spiked plasma/brain calibration standard was added to individual pre-labeled micro-centrifuge tubes followed by 200 μL of internal standard prepared in acetonitrile (Rosuvastatin+Cetrizine, 50 ng/mL) was added except for blank, where 200 μL of acetonitrile was added. Samples were vortexed for 5 minutes. Samples were centrifuged for 10 minutes at a speed of 4000 rpm at 4° C. Following centrifugation, 200 μL of clear supernatant was transferred in 96 well plates and analyzed using LC-MS/MS.
# Brain samples were diluted (1-part of tissue: 2-part of buffer) and homogenized. The homogenate was submitted for bioanalysis and the concentrations (ng/mL) received were corrected with dilution factor (3×) and the final reported concentrations were represented in ng/g.
# The plasma and brain concentration-time data of 323 and 001 were used for the pharmacokinetic analysis.
# LLOQ: 323: 1.02 ng/mL for plasma and brain 001: 1.01 ng/mL for plasma and brain
# [7] = Hydrolysis Assay - Condition 2 (DI Water); type: physicochemical; conditions: 25° C., 0.5 mM
# [8] = type: in vitro ADME, human; conditions: prodrug remaining, 5 μM, 37° C.
# Method: as §1
# [9] = male, C57BL/6, mouse, in vivo, 323 in brain after 323 IV 2 mg/kg
# [10] = male, C57BL/6, mouse, in vivo, 323 in plasma after 323 IV 2 mg/kg
# [11] = male, C57BL/6, mouse, in vivo, 323 after 323 IV 2 mg/kg, read-out: Brain concentrations (mean)
# [12] = male, C57BL/6, mouse, in vivo, 323 after 323 IV 2 mg/kg, read-out: Plasma concentrations (mean)
compound,measurement,setting,value
"COc1ccc([C@@]23CCC(OP4(=O)OCC(C)(C)CO4)=C[C@@H]2N(C)CC3)cc1OC [Compound 323, 2-[[(3aS,7aS)-3a-(3,4-dimethoxyphenyl)-1-methyl-3,4,5,7a-tetrahydro-2H-indol-6-yl]oxy]-5,5-dimethyl-1,3,2λ^5-dioxaphosphinane 2-oxide]",half-life at 1 μM,[1],327 min
same,hepatocyte CLint at 1 μM,[1],4.2 µL/min/1e6 cells
same,IC50,[2],62.7 nM
same,Mouse Plasma Prodrug (%),[3]; 0 min,100.0%
same,Mouse Plasma Prodrug (%),[3]; 15 min,>99%
same,Mouse Plasma Prodrug (%),[3]; 30 min,>99%
same,Mouse Plasma Prodrug (%),[3]; 60 min,94.1%
same,Mouse Plasma Prodrug (%),[3]; 120 min,71.9%
same,Mouse Plasma Prodrug (%),[3]; 240 min,50.3%
same,Condition 1 Conversion (%),[4]; 1 min,0%
same,Condition 1 Conversion (%),[4]; 5 min,0%
same,Condition 1 Conversion (%),[4]; 30 min,0%
same,Condition 1 Conversion (%),[4]; 1 h,0%
same,Condition 1 Conversion (%),[4]; 4 h,0%
same,Condition 1 Conversion (%),[4]; 24 h,0%
same,Rat Plasma Prodrug (%),[5]; 0 min,100.00%
same,Rat Plasma Prodrug (%),[5]; 10 min,>99%
same,Rat Plasma Prodrug (%),[5]; 30 min,95.5%
same,Rat Plasma Prodrug (%),[5]; 60 min,82.0%
same,Rat Plasma Prodrug (%),[5]; 120 min,58.8%
same,Rat Plasma Prodrug (%),[5]; 240 min,34.0%
same,brain concentrations quantifiable up to,[6]; 323 after 323 IV 2 mg/kg,≤ 0.5 h
same,plasma concentrations quantifiable up to,[6]; 323 after 323 IV 2 mg/kg,up to 2 h
same,AUClast,[6]; 323 in brain after 323 IV 2 mg/kg,6.56 ng·h/g
same,half-life,[6]; [9],10.8 min
same,C0,[6]; [9],33.9 ng/mL
same,clearance,[6]; [9],4350 mL/min/kg
same,Vd,[6]; [9],61.7 L/kg
same,half-life,[6]; [10],10.2 min
same,C0,[6]; [10],609 ng/mL
same,clearance,[6]; [10],344 mL/min/kg
same,Vd,[6]; [10],3.25 L/kg
same,concentration at 0.08 h,[6]; [11],22.1 ng/g
same,concentration at 0.08 h,[6]; [12],332 ng/mL
same,concentration at 0.25 h,[6]; [11],8.97 ng/g
same,concentration at 0.25 h,[6]; [12],91.6 ng/mL
same,concentration at 0.5 h,"[6]; male, C57BL/6, mouse, in vivo, 323 after 323 IV 2 mg/kg, average of two values, read-out: Brain concentrations (mean)",4.43 ng/g
same,concentration at 0.5 h,[6]; [12],26.3 ng/mL
same,concentration at 1 h,"[6]; male, C57BL/6, mouse, in vivo, 323 after 323 IV 2 mg/kg, 1 h, read-out: Plasma concentrations (mean)",4.05 ng/mL
same,concentration at 2 h,"[6]; male, C57BL/6, mouse, in vivo, 323 after 323 IV 2 mg/kg, 2 h, single value, excluded from data analysis, read-out: Plasma concentrations (mean)",1.03 ng/mL
same,Kp,"[6]; male, C57BL/6, mouse, in vivo, 323 after 323 IV 2 mg/kg, read-out: Brain-Kp",0.07
same,AUC(0-t),[6]; [10],96 ng·h/mL
same,Condition 2 Conversion (%),[7]; 1 min,0%
same,Condition 2 Conversion (%),[7]; 5 min,0%
same,Condition 2 Conversion (%),[7]; 30 min,0%
same,Condition 2 Conversion (%),[7]; 1 h,0%
same,Condition 2 Conversion (%),[7]; 4 h,0%
same,Condition 2 Conversion (%),[7]; 24 h,0%
same,Human Plasma Prodrug (%),[8]; 0 min,100%
same,Human Plasma Prodrug (%),[8]; 15 min,76.6%
same,Human Plasma Prodrug (%),[8]; 30 min,64.5%
same,Human Plasma Prodrug (%),[8]; 60 min,38.1%
same,Human Plasma Prodrug (%),[8]; 120 min,12.8%
same,Human Plasma Prodrug (%),[8]; 240 min,1.60%
